Like-named read-outs stand apart in the source and are kept apart here.
Assays:
EMT-6 mammary tumors = assay: Comparison with [18F]FLT in tumor-bearing mice; type: in vivo; settings: 1 hr for [11C]10; 2 hr post-i.v. injection for [76Br]6 and [125I]6i
[1] = Biodistribution in EMT-6 BALB/C mice; type: in vivo; settings: Balb/c, mouse, intravenous
[2] = kidney, read-out: % ID per gram kidney
[3] = liver, read-out: % ID per gram liver
[4] = spleen, read-out: % ID per gram spleen

- tissue uptake at 2 h [1, 2]: 1.85 ± 0.54 %ID/g
- tissue uptake at 4 h [1, 2]: 0.57 ± 0.12 %ID/g
- tissue uptake at 2 h [1, 3]: 1.67 ± 0.1 %ID/g
- tissue uptake at 4 h [1, 3]: 0.71 ± 0.08 %ID/g
- tissue uptake at 4 h ([1]; lung, read-out: % ID per gram lung): 0.29 ± 0.03 %ID/g
- tissue uptake at 5 min ([1]; spleen, 5 min, read-out: % ID per gram spleen): 12.5 ± 1.46 %ID/g
- tissue uptake at 30 min ([1]; spleen, 30 min, read-out: % ID per gram spleen): 6.91 ± 1.22 %ID/g
- tissue uptake at 1 h ([1]; spleen, 1 hour, read-out: % ID per gram spleen): 2.61 ± 0.62 %ID/g
- tissue uptake at 2 h [1, 4]: 0.6 ± 0.03 %ID/g
- tissue uptake at 4 h [1, 4]: 0.2 ± 0.03 %ID/g
Structure (SMILES): COc1cc2c(cc1OC)CN(CCCCNC(=O)c1cc([76Br])cc(OC)c1OC)CC2 [[^76Br]6]
- tumor:background ratios compared with [18F]FLT (EMT-6 mammary tumors): higher tumor:background ratios greater than that observed with [^18F]FLT
